In BindingDB's records for doi:10.1016/j.ejmech.2018.09.067 (University of Louvain, 2018):

Tests used:
[1] = Inhibition of human MAGL
[2] = Inhibition of human thrombin using Z-GPR-AMC as substrate after 30 mins by fluorimetric analysis
[3] = Inhibition of human MAOA using kynuramine as substrate after 20 mins by spectrophotometric analysis
[4] = Inhibition of human recombinant PDE3A using [3H]cAMP after 20 mins by scintillation counting analysis
[5] = Inhibition of human IDO using L-tryptophan as substrate after 30 mins by Ehrlich's reagent based assay
[6] = Inhibition of human recombinant COX1 using arachidonic acid as substrate after 3 mins by fluorimetric analysis
[7] = Inhibition of human recombinant ACE using Abz-FRK(Dnp)-P-OH as substrate after 30 mins by fluorimetric analysis
[8] = Displacement of [3H]CP 55940 from human recombinant CB1 receptor after 120 mins by scintillation counting analysis
[9] = Inhibition of human recombinant Lck using Ulight-Poly GAT[EAY(1:1:1)]n as substrate after 10 mins by LANCE analysis
[10] = Displacement of [3H]8-OH-DPAT from recombinant human 5-HT1A receptor after 60 mins by scintillation counting analysis
[11] = Displacement of [125I]pirenzepine from human recombinant M1 receptor after 60 mins by scintillation counting analysis
[12] = Inhibition of human recombinant full-length LDHA using sodium pyruvate as substrate after 60 mins by resazurin dye-based assay
[13] = Inhibition of human carbonic anhydrase 2 using 4-nitrophenyl acetate as substrate after 20 mins by spectrophotometric analysis
[14] = Displacement of [3H]muscimol from recombinant human GABAalpha1beta2gamma2 measured after 120 mins by scintillation counting method
[15] = Inhibition of human recombinant acetylcholinesterase using acetylthiocholine as substrate after 30 mins by spectrophotometric analysis
[16] = Inhibition of human recombinant C-terminal His-tagged PHGDH (1 to 533 residues) expressed in Escherichia coli using 3-phosphoglycerate as substrate
[17] = Displacement of [3H]WY 14643 from human recombinant PPARalpha receptor at 10 uM after 120 mins by scintillation counting analysis relative to control
[18] = Inhibition of human recombinant Arg1 using L-arginine as substrate after 5 mins in presence of [guanidino-14C]-L-arginine by liquid scintillation counting analysis

Compound: O=C(NNC(=S)Nc1ccc(Cl)c(Cl)c1)c1ccccc1O
- IC50 [1]: 363 nM
- IC50 [2]: 0.103 nM
- IC50 [3]: 40 nM
- IC50 [4]: 490 nM
- IC50 [5]: 37000 nM
- IC50 [6]: 8 nM
- IC50 [7]: 0.7 nM
- IC50 [8]: 0.58 nM
- IC50 [9]: 31 nM
- IC50 [10]: 0.6 nM
- IC50 [11]: 22 nM
- IC50 [12]: 577000 nM
- IC50 [13]: 29 nM
- IC50 [14]: 75 nM
- IC50 [15]: 520 nM
- IC50 [16]: 8700 nM
- IC50 [17]: 52 nM
- IC50 [18]: 13000 nM
